# Results taken from US8106218B2, “Pharmaceutical compounds” (Neuroscienze Pharmaness S.C. A R.L., priority 2004, dated 2012).
# “Also recorded” adds a separate entry of the source. Where two headings read alike, the source gives them in different places.
# Assays:
# rat = conditions: concluded from the hypothermia tests
# Method: The rectal temperature in the rat was determined by an electronic thermometer inserted at a 2 mm depth. The measurements were carried out on rats acclimated for one hour. […]
# Each test was repeated on ten animals; the reported results are the average of the results obtained with the ten animals.
# [1] = biological target: T1, cannabinoidergic CB2 receptors (Rattus norvegicus, UniProt Q9QZN9); test: Radioreceptorial binding, [3H]-CP-55,940 competition, rat spleen membranes
# T1 construct: the brain in toto (cerebellum excluded) and the spleen were rapidly dissected and maintained in ice; from tissue; host or cells: rat spleen, membrane preparation
# T1 sequence (Q9QZN9 1-360): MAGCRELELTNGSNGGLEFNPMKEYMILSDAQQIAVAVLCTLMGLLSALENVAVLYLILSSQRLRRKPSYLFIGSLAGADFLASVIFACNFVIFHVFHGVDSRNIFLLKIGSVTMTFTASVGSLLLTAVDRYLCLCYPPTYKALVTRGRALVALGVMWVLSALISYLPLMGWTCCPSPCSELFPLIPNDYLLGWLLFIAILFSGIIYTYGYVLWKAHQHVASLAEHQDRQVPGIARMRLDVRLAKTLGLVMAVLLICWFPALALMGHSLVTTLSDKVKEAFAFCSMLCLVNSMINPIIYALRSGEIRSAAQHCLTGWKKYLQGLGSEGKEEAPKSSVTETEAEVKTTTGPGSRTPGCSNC
# Method: (§1) The affinity of the synthesized compounds towards the cannabinoidergic CB1 and CB2 receptors was evaluated in vitro through radioreceptorial binding studies by utilizing the following method.
# (§2) The receptorial binding technique allows indeed to establish if and with what affinity and specificity a determined compound binds itself to a particular receptor. To evaluate the possible affinity of a determined compound towards a particular receptor it is necessary to make to compete (in a particular preparation of the tissue in which those determined receptors are present) the compound to be tested with another compound whose affinity is known and whose molecule was rendered radioactive. […] The reading of the radioactivity present in the receptor-compound complex allows furthermore to calculate with extreme precision the amount of compound bound to the receptor. […] By repeating the same experimental scheme it is possible to evaluate the affinity of the compound towards other kinds of receptors and establish then the specificity degree.
# (§3) Food and water were available ad libitum.
# (§4) The animals were sacrificed by cervical dislocation, the brain in toto (cerebellum excluded) and the spleen were rapidly dissected and maintained in ice.
# (§5) The tissue was homogenized in 15 volumes (weight/volume) of TME buffer (50 mM Tris, 1 mM EDTA e 3 mM MgCl2, pH 7.4) by an Ultra-Turrax and centrifuged for 10 minutes at 1086×g in a centrifuge cooled at 4° C. The resulting supernatant was centrifuged at 45,000×g for 30 min at 4° C. by using a Beckman SW41 rotor and the final pellet was resuspended in 50 volumes of TME.
# (§6) The obtained membranes (50-80 μg of proteins) were incubated in the presence of 1 nM di[^3H]-CP55,940 for 1 h at 30° C. in a final volume of 0.5 ml of TME buffer containing 5 mg/ml of bovine serum albumin (BSA). The non specific binding was measured in the presence of CP55,940 at the 1 μM concentration.
# (§7) All the experiments were carried out in polypropylene test tubes pretreated with Sigma-Cote (Sigma Chemical Co. Ltd., Poole, UK) to reduce the non specific binding.
# (§8) For the building of the competitive inhibition binding curves eight different concentrations of each compound were used.
# (§9) Incubation was interrupted by addition of TME buffer (at 4° C.) containing 5 mg/ml of BSA and filtration under vacuum through Whatman GFC filters pretreated with 0.5% of polyethylamine (PEI) and by using a filtering apparatus (Brandell, Gaithersburg, Md., USA). Filters were washed 3 times with 5 ml of Tris HCl buffer (pH 7.4, 4° C.) containing 1 mg/ml of BSA and singly placed in plastic vials containing 4 ml of scintillating liquid (Ultima Gold MV, Packard).
# (§10) The radioactivity present in the filters was measured by a scintillator spectrophotometer (Tricarb 2100, Packard, Meridien, USA).
# (§11) The protein determination was carried out by the Bradford method by using the protocol and the reactants supplied by Bio-Rad (Milano, Italia).
# (§12) The affinity of the compounds towards the CB1 and CB2 receptors was expressed in Ki terms.
# rat intestinal motility [2] = test: Intestinal motility, Upper Gut Transit Test, antagonism of the constipating action of WIN 55,212-2; assay type: in vivo; conditions: WIN alone 25%
# Method: (§13) To evaluate the activity in vivo of the compounds (I) object of the present invention, functional tests were carried out directed to the evaluation of the effect of said compounds on the rat intestinal motility. It was indeed shown the involvement of the cannabinoidergic CB1 receptors in the intestinal motility regulation in rat (R. G. Pertwee et al; Br. J. Pharmacol.; 1996, 118, 2199-2205). In particular, the CB1 receptor agonists slacken the gastrointestinal motility; antagonist compounds of the same receptors have instead a prokinetic effect on the gastrointestinal transit (G. Colombo et al.; Eur. J. Pharmacol.; 1998, 344, 67-69; M. A. Casu et al.; Eur. J. Pharmacol.; 2003, 459, 97-105).
# (§14) The evaluation of the constipating or prokinetic effect of the compounds was carried out by the Upper Gut Transit Test method on the basis of the procedure defined and ratified by Y. Nagakura et al.; Eur. J. Pharmacol.; 1996, 311, 67-72. The method, which allows to measure the motility of the stomach and of the first intestine tract (small or little intestine), requires: • the administration of the compound to be tested by i.p. route; • the administration of carmine red (marker not directly absorbable from the stomach) by intragastric route through a metal probe, after 20 minutes from the administration of the compound to be tested; • the rat sacrifice by cervical dislocation after a pre-fixed time (30 minutes) starting from the administration time; • the intestine explant from pylorus to the ileo-cecal valve; • the determination of the intestinal part crossed by the marker; • the data processing to determine the percentage of crossed part with respect to the total length of the small intestine.
# With respect to the control (physiological solution or carrier wherein the compounds to be tested were solubilized or dispersed), the administration of CB1 agonist compounds implies an intestinal transit percentage reduction; an opposite effect is noticed in case of antagonist compounds. The latter are therefore capable to cancel the constipating effect of CB1 agonist compounds. […]
# [3] = biological target: T2, cannabinoidergic CB1 receptors (Rattus norvegicus, UniProt P20272); test: Radioreceptorial binding, [3H]-CP-55,940 competition, rat brain membranes
# T2 construct: the brain in toto (cerebellum excluded) and the spleen were rapidly dissected and maintained in ice; from tissue; host or cells: rat brain (cerebellum excluded), membrane preparation
# Method: as §1, §2, §3, §4, §5, §6, §7, §8, §9, §10, §11, §12
# rat intestinal motility [4] = test: Intestinal motility, Upper Gut Transit Test, compound alone; assay type: in vivo; conditions: control 50%
# Method: as §13, §14
# With respect to the control (physiological solution or carrier wherein the compounds to be tested were solubilized or dispersed), the administration of CB1 agonist compounds implies an intestinal transit percentage reduction; an opposite effect is noticed in case of antagonist compounds. The latter are therefore capable to cancel the constipating effect of CB1 agonist compounds.
# Each test was repeated on ten animals; the results reported in the Examples are the average of the results obtained with ten animals.
# T2 sequence (P20272 whole entry): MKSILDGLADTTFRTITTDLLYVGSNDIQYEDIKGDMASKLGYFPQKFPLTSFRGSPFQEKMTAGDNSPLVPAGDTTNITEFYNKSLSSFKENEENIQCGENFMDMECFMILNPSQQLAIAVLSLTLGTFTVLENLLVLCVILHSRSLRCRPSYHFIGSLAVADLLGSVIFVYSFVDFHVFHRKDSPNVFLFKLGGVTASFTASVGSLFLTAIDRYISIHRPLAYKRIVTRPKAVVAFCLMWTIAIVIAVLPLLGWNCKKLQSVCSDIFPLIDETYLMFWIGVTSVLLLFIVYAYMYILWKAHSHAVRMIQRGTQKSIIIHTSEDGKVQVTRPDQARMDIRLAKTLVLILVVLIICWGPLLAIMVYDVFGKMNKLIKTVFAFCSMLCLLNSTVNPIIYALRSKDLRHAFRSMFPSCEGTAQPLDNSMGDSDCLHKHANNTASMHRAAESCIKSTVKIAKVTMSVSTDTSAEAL
SMILES,passage of the hemato-encephalic barrier (rat),melting point,"Ki ([1]; rat spleen membranes, 1 nM [3H]-CP55,940, read-out: CB2 (spleen) Ki)","intestinal portion run by the marker with respect to the total intestine length (rat intestinal motility [2]; compound 1.5 mg/kg before WIN 55,212-2 0.5 mg/kg)","Ki ([3]; rat brain membranes, 1 nM [3H]-CP55,940, read-out: CB1 (brain) Ki)",intestinal portion run by the marker with respect to the total intestine length (rat intestinal motility [4]; compound 5 mg/kg i.p.),Ki [1],"intestinal portion run by the marker with respect to the total intestine length (rat intestinal motility [2]; compound 0.3 mg/kg before WIN 55,212-2 0.5 mg/kg)",Ki [3],intestinal portion run by the marker with respect to the total intestine length (rat intestinal motility [4]; compound 1 mg/kg i.p.)
"O=C(NN1CCCC1)c1nn(-c2ccc(Cl)cc2Cl)c2c1CCc1sc(Cl)cc1-2 [Example 3.5, N-pyrrolidinyl-7-chloro-1-(2′,4′-dichlorophenyl)-4,5-dihydro-1H-thieno[2,3-g]indazol-3-carboxamide]",not able to pass the hemato-encephalic barrier,228 °C,0.243 ± 0.014 µM,50%,0.137 ± 0.012 µM,67%,,,,
"O=C(NN1CCCCCC1)c1nn(-c2ccc(Cl)cc2Cl)c2c1CCc1sc(Cl)cc1-2 [Example 3.6, N-homopiperidinyl-7-chloro-1-(2′,4′-dichlorophenyl)-4,5-dihydro-1H-thieno[2,3-g]indazol-3-carboxamide]",unable to pass the hemato-encephalic barrier; also recorded: not capable to pass the hemato-encephalic barrier,181 to 182 °C,,,,75%,0.0208 ± 0.0014 µM,50%,0.00983 ± 0.00072 µM,65%
